The target in assay [1] is NR1/NR2B (Homo sapiens (Human), UniProt Q05586+Q13224). The assay can be described thus: Cell assay: FDSS Ca2+ influx inhibition in HEK293 cells expressing NR1/NR2B.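 Also: Fluo-8 Ca2+ signal read on Hamamatsu FDSS 6000 after glutamate, glycine and Ca2+ challenge following 10 min compound preincubation, end/baseline fluorescence ratio compared with MK801 control.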 To be noted: Binned Activity.
Procedure: (§1) Cell Culture and plating: HEK293 cells expressing NR1/NR2B (Chantest, Cleveland, Ohio) were grown to 70-80% confluency as an adherent monolayer in standard tissue culture flasks at 37° C., 5% CO2 per supplier's instructions. NR2B expression was induced by incubation with 0.3-0.4 μg/ml tetracycline in the presence of 4 mM ARL-15896 for 18-24 hours under the same growth conditions, then transferred to 30° C. for another 3-5 hours.
(§2) After induction, cell culture medium was removed and cells were rinsed once with Ca^2+ and Mg^2+-free Dulbecco's phosphate buffered saline. Cells were then removed from the flask using TrypLE™ Express (Life Technologies) according to the manufacturer's instructions and collected to 50 ml centrifuge tubes. Following two washes in Ca^2+/Mg^2+-free HBSS with 20 mM HEPES (HHnoCa), cells were counted and viability assessed using trypan blue. To load cells with Ca^2+-sensitive dye, they were resuspended in fluo-8 plus Component B (AAT Bioquest Products) diluted in HHnoCa and incubated 15 minutes at 37° C., followed by 30 minutes at room temp (in dark). Cells were then washed and resuspended in HHnoCa to remove extracellular dye and plated in 384-well plates (Falcon, uncoated) at 20,000-30,000 cells/well in a final volume of 25 μl/well.
(§3) FDSS Assay: To each well of the plate, 10 μL test compound, control (MK801) or HHnoCa buffer was added to a final concentration of 10 μM with a final concentration of DMSO of 0.1%. Following 10 minutes pre-incubation in the dark, plates are loaded onto the Hamamatsu FDSS 6000. After collecting baseline fluorescence images, 3 μM glutamate, 3 glycine, and 1 mM Ca^2+ in HHnoCa buffer is added to each well, and Ca^2+ is recorded for 3 minutes. Data were processed by computing ratio of fluorescence at the end of data collection to baseline fluorescence to assess degree of Ca′ influx inhibition relative to that observed in MK801.
Assay [2] addresses NR1/NR2B (Homo sapiens (Human), UniProt Q13224). The description is as above. Conditions: read-out: NR2B NAM IC50.
Procedure: as §1, §2, §3
Setting [3] is: HEK293 cells expressing NR1/NR2B, Ca2+ influx, binned NR2B NAM IC50.
Where [4] appears, read: HEK293 cells expressing NR1/NR2B, Ca2+ influx.

Each structure is given as a SMILES string. Read-outs that look alike come from different tables or passages of the source. Some results are limits rather than exact numbers.

Chain of NR1/NR2B (Homo sapiens (Human), UniProt Q05586+Q13224) (Q13224 27-1484, other chains not shown): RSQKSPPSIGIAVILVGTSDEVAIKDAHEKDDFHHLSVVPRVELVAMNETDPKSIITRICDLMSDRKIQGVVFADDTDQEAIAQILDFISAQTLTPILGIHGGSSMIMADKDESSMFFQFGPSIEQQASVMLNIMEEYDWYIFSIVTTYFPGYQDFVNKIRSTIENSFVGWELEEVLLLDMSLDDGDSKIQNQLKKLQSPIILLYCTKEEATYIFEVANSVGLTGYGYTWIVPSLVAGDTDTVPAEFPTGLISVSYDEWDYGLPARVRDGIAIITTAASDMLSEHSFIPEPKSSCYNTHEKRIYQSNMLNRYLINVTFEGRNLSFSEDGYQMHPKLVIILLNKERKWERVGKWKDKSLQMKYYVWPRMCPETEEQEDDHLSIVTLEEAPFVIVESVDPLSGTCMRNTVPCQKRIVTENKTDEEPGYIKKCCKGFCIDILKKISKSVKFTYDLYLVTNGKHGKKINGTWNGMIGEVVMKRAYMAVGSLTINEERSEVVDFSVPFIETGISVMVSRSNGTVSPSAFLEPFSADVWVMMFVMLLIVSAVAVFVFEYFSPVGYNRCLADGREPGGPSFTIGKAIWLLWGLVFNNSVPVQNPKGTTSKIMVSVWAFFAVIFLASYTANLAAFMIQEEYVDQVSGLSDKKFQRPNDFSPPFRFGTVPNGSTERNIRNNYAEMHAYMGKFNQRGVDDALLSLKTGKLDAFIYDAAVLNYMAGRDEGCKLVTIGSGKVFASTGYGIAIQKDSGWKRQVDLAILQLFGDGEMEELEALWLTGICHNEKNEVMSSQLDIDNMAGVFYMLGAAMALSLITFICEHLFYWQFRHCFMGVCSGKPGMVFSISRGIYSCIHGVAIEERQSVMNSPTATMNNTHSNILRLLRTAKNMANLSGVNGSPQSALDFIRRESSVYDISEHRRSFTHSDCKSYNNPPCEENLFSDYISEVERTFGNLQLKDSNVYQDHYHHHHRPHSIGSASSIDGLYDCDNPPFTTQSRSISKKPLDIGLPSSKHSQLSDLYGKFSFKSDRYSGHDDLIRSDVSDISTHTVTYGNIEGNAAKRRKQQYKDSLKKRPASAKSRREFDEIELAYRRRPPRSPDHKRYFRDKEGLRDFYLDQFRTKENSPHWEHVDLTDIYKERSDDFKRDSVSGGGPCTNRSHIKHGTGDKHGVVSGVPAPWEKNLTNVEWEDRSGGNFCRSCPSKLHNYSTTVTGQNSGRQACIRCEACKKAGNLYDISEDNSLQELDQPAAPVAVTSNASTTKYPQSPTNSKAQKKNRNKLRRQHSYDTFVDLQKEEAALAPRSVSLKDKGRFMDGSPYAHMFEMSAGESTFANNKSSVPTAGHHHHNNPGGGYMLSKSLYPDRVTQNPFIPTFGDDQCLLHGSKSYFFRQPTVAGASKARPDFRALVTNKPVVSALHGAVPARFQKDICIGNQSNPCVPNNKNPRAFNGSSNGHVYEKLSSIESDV
Chain of NR1/NR2B (Homo sapiens (Human), UniProt Q13224) (Q13224 27-1484, other chains not shown): as above

On to `Cc1cc(F)ccc1C[C@]1(O)C[C@H]2CN(CC(=O)c3ccc(O)cc3)C[C@H]2C1` [Example 250, 2-((3aR,5r,6aS)-5-(4-fluoro-2-methylbenzyl)-5-hydroxyhexahydrocyclo-penta[c]pyrrol-2(1H)-yl)-1-(4-hydroxyphenyl)ethanone], for which the IC50 in assay [1] (setting [3]) is 0.1 to 1 µM; in assay [2] (setting [4]) it was 0.137 µM.

On to `O=C(CN1C[C@@H]2C[C@@](O)(Cc3ccc(F)cc3)C[C@@H]2C1)c1ccc(O)cc1` [Example 134, 2-((3aR,5r,6aS)-5-(4-fluorobenzyl)-5-hydroxyhexahydrocyclo-penta[c]pyrrol-2(1H)-yl)-1-(4-hydroxyphenyl)ethanone], for which the IC50 in assay [1] (setting [3]) was under 0.1 µM; in assay [2] (setting [4]) it was 0.0432 µM.

As for `O=C(CN1C[C@@H]2CC(O)(CCc3ccccc3)C[C@@H]2C1)c1ccc(-c2ccccc2)cc1` (some centres unmarked) [Example 269, 2-[5-hydroxy-5-(2-phenylethyl)-octahydrocyclopenta[c]pyrrol-2-yl]-1-(4-phenylphenyl)ethan-1-one], the figures for the IC50 in assay [1] (setting [3]) and in assay [2] (setting [4]) were over 10 µM and 10 µM, respectively.

For `Cc1cc(F)ccc1C[C@]1(O)C[C@H]2CN(CC(=O)c3ccc(O)cn3)C[C@H]2C1` [Example 242, 2-((3aR,5r,6aS)-5-(4-fluoro-2-methylbenzyl)-5-hydroxyhexahydrocyclo-penta[c]pyrrol-2(1H)-yl)-1-(5-hydroxypyridin-2-yl)ethanone], the IC50 in assay [1] (setting [3]) is 1 to 10 µM; in assay [2] (setting [4]), 2.71 µM.

As for `O=C(CCN1C[C@@H]2C[C@@](O)(c3ccccc3)C[C@@H]2C1)c1ccc(O)cc1` [Example 97, 3-(5-hydroxy-5-phenylhexahydrocyclo-penta[c]pyrrol-2(1H)-yl)-1-(4-hydroxyphenyl)propan-1-one], the figures for the IC50 in assay [1] (setting [3]) and in assay [2] (setting [4]) were over 10 µM and 10 µM, respectively.

Regarding `Cc1ccc(NC(=O)N2C[C@@H]3C[C@@](O)(Cc4ccccc4)C[C@@H]3C2)c(C)c1` [Example 121, (3aR,5r,6aS)-5-benzyl-N-(2,4-dimethylphenyl)-5-hydroxyhexahydrocyclo-penta[c]pyrrole-2(1H)-carboxamide], the half-inhibitory concentration (IC50) is over 10 µM in assay [1] (setting [3]) and 10 µM in assay [2] (setting [4]).

For the compound `Cc1ccccc1-c1ccc(C(=O)CN2C[C@@H]3C[C@@](O)(Cc4ccccc4)C[C@@H]3C2)cc1` [Example 260, 2-((3aR,5r,6aS)-5-benzyl-5-hydroxyhexahydrocyclo-penta[c]pyrrol-2(1H)-yl)-1-(2′-methyl-[1,1′-biphenyl]-4-yl)ethanone], the IC50 is over 10 µM in assay [1] (setting [3]) and 10 µM in assay [2] (setting [4]).

For the compound `O=C(Nc1ccccc1)N1C[C@H]2C[C@@H](c3ccccc3)C[C@H]2C1` [Example 102, N,5-diphenyl-octahydrocyclopenta[c] pyrrole-2-carboxamide], the IC50 in assay [1] (setting [3]) was over 10 µM; in assay [2] (setting [4]) it was 10 µM.

On to `Oc1ccc([C@H](O)CN2C[C@@H]3C[C@@](O)(Cc4ccc(F)cc4)C[C@@H]3C2)nc1` [Example 256, (3aR,5R,6aS)-5-(4-fluorobenzyl)-2-((R)-2-hydroxy-2-(5-hydroxypyridin-2-yl)ethyl)octahydrocyclo-penta[c]pyrrol-5-ol], for which the IC50 was under 0.1 µM in assay [1] (setting [3]) and 0.0317 µM in assay [2] (setting [4]).

For `CC(C)(O)c1ccc(C(=O)CN2C[C@@H]3C[C@@](O)(Cc4ccccc4)C[C@@H]3C2)cc1` [Example 138, 2-((3aR,5r,6aS)-5-benzyl-5-hydroxyhexahydrocyclo-penta[c]pyrrol-2(1H)-yl)-1-(4-(2-hydroxypropan-2-yl)phenyl)ethanone], the IC50 in assay [1] (setting [3]) was over 10 µM; in assay [2] (setting [4]) it was 10 µM.

Consider `O=C(CN1C[C@@H]2C[C@@](O)(CC3CCCCC3)C[C@@H]2C1)c1ccc(O)cn1` [Example 206, 2-[(3aR,5R,6aS)-5-(cyclohexylmethyl)-5-hydroxy-octahydrocyclopenta[c]pyrrol-2-yl]-1-(5-hydroxypyridin-2-yl)ethan-1-one], for which the IC50 in assay [1] (setting [3]) is over 10 µM; in assay [2] (setting [4]), 10 µM.

As to `O=C(CN1C[C@@H]2C[C@@](O)(Cc3ccc(F)c(F)c3)C[C@@H]2C1)c1ccc(O)cn1` [Example 239, 2-((3aR,5r,6aS)-5-(3,4-difluorobenzyl)-5-hydroxyhexahydrocyclo-penta[c]pyrrol-2(1H)-yl)-1-(5-hydroxypyridin-2-yl)ethanone], the IC50 was over 10 µM in assay [1] (setting [3]) and 10 µM in assay [2] (setting [4]).

With `O=C(CN1C[C@@H]2C[C@@](O)(Cc3ccccc3)C[C@@H]2C1)c1ccc(=O)[nH]n1` [Example 157, 6-(2-((3aR,5r,6aS)-5-benzyl-5-hydroxyhexahydrocyclo-penta[c]pyrrol-2(1H)-yl)acetyl)pyridazin-3(2H)-one], the figures for the IC50 in assay [1] (setting [3]) and in assay [2] (setting [4]) were over 10 µM and 10 µM, respectively.

For `O=C(CN1C[C@@H]2C[C@@](O)(Cc3ccccc3)C[C@@H]2C1)c1ccc(-c2cccnc2)cc1` [Example 267, 2-((3aR,5r,6aS)-5-benzyl-5-hydroxyhexahydrocyclo-penta[c]pyrrol-2(1H)-yl)-1-(4-(pyridin-3-yl)phenyl)ethanone], the IC50 was over 10 µM in assay [1] (setting [3]) and 10 µM in assay [2] (setting [4]).

`O=C(CN1C[C@@H]2C[C@@](O)(Cc3ccccc3F)C[C@@H]2C1)c1ccc(O)cc1` [Example 225, 2-((3aR,5r,6aS)-5-(2-fluorobenzyl)-5-hydroxyhexahydrocyclo-penta[c]pyrrol-2(1H)-yl)-1-(4-hydroxyphenyl)ethanone]: the IC50 is under 0.1 µM in assay [1] (setting [3]) and 0.0273 µM in assay [2] (setting [4]).

With `O=C(CN1C[C@@H]2C[C@@](O)(Cc3ccccc3)C[C@@H]2C1)c1cccc(-c2cccnc2)c1` [Example 272, 2-((3aR,5r,6aS)-5-benzyl-5-hydroxyhexahydrocyclo-penta[c]pyrrol-2(1H)-yl)-1-(3-(pyridin-3-yl)phenyl)ethanone], the IC50 in assay [1] (setting [3]) is over 10 µM; in assay [2] (setting [4]), 10 µM.

In the case of `CC(C(=O)c1ccc(O)cc1)N1C[C@H]2C[C@@H](CCc3ccccc3)C[C@H]2C1` (stereo partly drawn) [Example 325, 1-(4-hydroxyphenyl)-2-((3aR,5r,6aS)-5-phenethylhexa-hydrocyclo-penta[c]pyrrol-2(1H)-yl)propan-1-one], the half-maximal inhibitory concentration (IC50) in assay [1] was 0.1 to 1 µM; in assay [2], 0.192 µM.

Regarding `COc1ncc(-c2ccc(C(=O)CN3C[C@@H]4C[C@@](O)(Cc5ccccc5)C[C@@H]4C3)cc2)cn1` [Example 279, 2-((3aR,5r,6aS)-5-benzyl-5-hydroxyhexahydrocyclo-penta[c]pyrrol-2(1H)-yl)-1-(4-(2-methoxypyrimidin-5-yl)phenyl)ethanone], the IC50 is over 10 µM in assay [1] (setting [3]) and 10 µM in assay [2] (setting [4]).

As for `O=C(CN1C[C@@H]2C[C@@](O)(Cc3c(F)cccc3F)C[C@@H]2C1)c1ccc(O)cc1` [Example 241, 2-[(3aR,5R,6aS)-5-[(2,6-difluorophenyl)methyl]-5-hydroxy-octahydrocyclopenta[c]pyrrol-2-yl]-1-(4-hydroxyphenyl)ethan-1-one], the values for the IC50 in assay [1] (setting [3]) and in assay [2] (setting [4]) were 0.1 to 1 µM and 0.118 µM, respectively.

On to `CC(C)(C)c1ccc([C@]2(O)C[C@H]3CN(C(=O)Nc4cccc(C#N)c4)C[C@H]3C2)cc1` [Example 52], for which the IC50 in assay [1] (setting [3]) is over 10 µM; in assay [2] (setting [4]), 10 µM.

As to `Oc1ccc(C(O)CN2C[C@H]3C[C@@H](c4ccccc4)C[C@H]3C2)cc1` (some centres unmarked) [Example 115, 4-(1-hydroxy-2-(5-phenylhexahydrocyclo-penta[c]pyrrol-2(1H)-yl)ethyl)phenol], the IC50 in assay [1] (setting [3]) is over 10 µM; in assay [2] (setting [4]), 10 µM.

For `COC(=O)c1ccc(NC(=O)N2C[C@H]3C[C@@H](c4ccccc4)C[C@H]3C2)cc1` [Example 103, methyl 4-[({5-phenyl-octahydrocyclopenta[c]pyrrol-2-yl}carbonyl)amino]benzo-ate], the IC50 in assay [1] (setting [3]) is over 10 µM; in assay [2] (setting [4]), 10 µM.

Regarding `Oc1ccc([C@H](O)CN2C[C@@H]3C[C@@](O)(Cc4ccccc4)C[C@@H]3C2)cc1F` [Example 156, (3aR,5S,6aS)-5-benzyl-2-((S)-2-(3-fluoro-4-hydroxyphenyl)-2-hydroxyethyl)octahydro-cyclopenta[c]pyrrol-5-ol], the results for the IC50 in assay [1] (setting [3]) and in assay [2] (setting [4]) were under 0.1 µM and 0.0305 µM, respectively.

Regarding `O=C(CN1C[C@@H]2C[C@@](O)(Cc3ccc(F)c(F)c3)C[C@@H]2C1)c1ccc(O)cc1` [Example 252, 2-((3aR,5r,6aS)-5-(3,4-difluorobenzyl)-5-hydroxyhexahydrocyclo-penta[c]pyrrol-2(1H)-yl)-1-(4-hydroxyphenyl)ethanone], the IC50 in assay [1] (setting [3]) was under 0.1 µM; in assay [2] (setting [4]) it was 0.0853 µM.

With `COc1cccc(C[C@]2(O)C[C@H]3CN(CC(=O)c4ccc(O)c(F)n4)C[C@H]3C2)c1` [Example 200, 1-(6-fluoro-5-hydroxypyridin-2-yl)-2-((3aR,5r,6aS)-5-hydroxy-5-(3-methoxy-benzyl)hexahydro-cyclopenta[c]pyrrol-2(1H)-yl)ethanone], the IC50 in assay [1] (setting [3]) was over 10 µM; in assay [2] (setting [4]), 10 µM.

For `COc1cccc([C@]2(O)C[C@H]3CN(C(=O)Nc4cc(C)ccc4OC)C[C@H]3C2)c1` [Example 33, 5-hydroxy-N-(2-methoxy-5-methylphenyl)-5-(3-methoxyphenyl)-octahydrocyclopenta[c] pyrrole-2-carboxamide], the figures for the IC50 in assay [1] (setting [3]) and in assay [2] (setting [4]) were over 10 µM and 10 µM, respectively.

`CC(C)(C)c1ccc([C@]2(O)C[C@H]3CN(C(=O)Nc4ccccc4)C[C@H]3C2)cc1` [Example 54]: the IC50 was over 10 µM in assay [1] (setting [3]) and 10 µM in assay [2] (setting [4]).

With `O=C(CN1C[C@@H]2CN(Cc3ccccc3)C[C@@H]2C1)c1ccc(O)cc1` [Example 326, 2-(5-benzylhexahydropyrrolo [3,4-c]pyrrol-2(1H)-yl)-1-(4-hydroxy-phenyl)ethanone], the figures for the IC50 in assay [1] (setting [3]) and in assay [2] (setting [4]) were 0.1 to 1 µM and 0.682 µM, respectively.
